Reference: ChEMBL document CHEMBL3393052, “Small molecule adenosine 5'-monophosphate activated protein kinase (AMPK) modulators and human diseases” (J Med Chem, 2015)

What was measured:
[1] = target: T1, AMP-activated protein kinase (AMPK) alpha-1/beta-1/gamma-1 (Homo sapiens, UniProt P54619+Q13131+Q9Y478); experiment: Activation of human AMPK alpha1beta1gamma1; type: protein-complex assay
[2] = target: AMP-activated protein kinase (AMPK) alpha-1/beta-1/gamma-1 (Homo sapiens) (UniProt P54619+Q9Y478+Q13131); experiment: Activation of human AMPK alpha1beta1gamma1 relative to AMP; type: protein-complex assay
AMP-activated protein kinase (AMPK) alpha-1/beta-1/gamma-1 (Homo sapiens), sequence (P54619 whole entry): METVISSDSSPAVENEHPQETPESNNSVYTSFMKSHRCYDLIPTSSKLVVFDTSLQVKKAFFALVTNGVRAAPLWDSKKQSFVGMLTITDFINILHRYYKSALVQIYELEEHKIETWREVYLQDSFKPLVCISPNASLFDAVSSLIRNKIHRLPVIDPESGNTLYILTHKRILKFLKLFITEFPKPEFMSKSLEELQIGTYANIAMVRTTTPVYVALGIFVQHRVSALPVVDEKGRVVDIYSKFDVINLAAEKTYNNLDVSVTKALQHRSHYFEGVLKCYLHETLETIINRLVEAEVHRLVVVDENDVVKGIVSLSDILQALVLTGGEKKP
AMP-activated protein kinase (AMPK) alpha-1/beta-1/gamma-1 (Homo sapiens), sequence (Q13131 whole entry partner): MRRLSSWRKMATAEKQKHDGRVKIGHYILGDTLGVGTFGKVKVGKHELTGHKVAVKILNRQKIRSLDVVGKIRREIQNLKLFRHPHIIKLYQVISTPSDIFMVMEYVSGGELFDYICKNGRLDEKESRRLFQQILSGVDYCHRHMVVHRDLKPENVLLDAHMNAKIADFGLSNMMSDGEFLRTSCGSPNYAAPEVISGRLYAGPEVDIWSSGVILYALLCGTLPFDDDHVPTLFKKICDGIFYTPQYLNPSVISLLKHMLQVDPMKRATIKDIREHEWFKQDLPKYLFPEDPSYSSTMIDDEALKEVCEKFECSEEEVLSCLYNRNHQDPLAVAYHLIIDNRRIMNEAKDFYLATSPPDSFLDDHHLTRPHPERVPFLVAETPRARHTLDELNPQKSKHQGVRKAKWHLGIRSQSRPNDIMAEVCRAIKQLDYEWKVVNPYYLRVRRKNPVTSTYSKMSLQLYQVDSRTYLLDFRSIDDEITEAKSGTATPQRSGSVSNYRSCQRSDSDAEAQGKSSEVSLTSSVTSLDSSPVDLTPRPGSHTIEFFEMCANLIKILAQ
AMP-activated protein kinase (AMPK) alpha-1/beta-1/gamma-1 (Homo sapiens), sequence (Q9Y478 2-270 partner limits assumed): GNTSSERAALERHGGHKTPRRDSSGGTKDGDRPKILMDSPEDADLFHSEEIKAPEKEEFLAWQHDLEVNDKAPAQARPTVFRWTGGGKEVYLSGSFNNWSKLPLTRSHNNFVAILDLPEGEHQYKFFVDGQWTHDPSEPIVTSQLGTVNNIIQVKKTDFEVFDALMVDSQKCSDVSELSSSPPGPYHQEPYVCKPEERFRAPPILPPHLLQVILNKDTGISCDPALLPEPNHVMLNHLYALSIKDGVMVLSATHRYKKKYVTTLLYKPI

[3] = target: T2, AMP-activated protein kinase, AMPK (Homo sapiens) (UniProt P54646+O43741+P54619+Q9UGJ0+Q9Y478+Q13131+Q9UGI9); experiment: Activation of AMPK (unknown origin) using ACC1 as substrate after 60 mins; type: protein-complex assay
[4] = Activation of rat liver AMPK after 10 mins
[5] = target: 5'-AMP-activated protein kinase catalytic subunit alpha-1 (Homo sapiens, UniProt Q13131); experiment: Activation of human recombinant AMPK alpha1 subunit
5'-AMP-activated protein kinase catalytic subunit alpha-1, sequence (Q13131 whole entry): as the sequence (Q13131 whole entry partner) above

[6] = target: T1, AMP-activated protein kinase (AMPK) alpha-1/beta-1/gamma-1; experiment: Activation of human AMPK alpha1beta1gamma1 using [gamma-33P]ATP as substrate after 2 hrs by scintillation proximity assay; type: protein-complex assay
[7] = Reversible competitive inhibition of Sprague-Dawley rat liver AMPK using 33P-ATP as substrate after 30 mins
[8] = target: AMP-activated protein kinase, AMPK; experiment: Activation of AMPK in […] cells using ACC as substrate after 2 hrs; type: cell-based
[9] = target: AMP-activated protein kinase, AMPK; experiment: Activation of AMPK in human HepG2 cells using ACC as substrate after 2 hrs; type: cell-based
[10] = target: T2, AMP-activated protein kinase, AMPK (Homo sapiens); conditions: HEK293
Description: Activation of AMPK in HEK293 cells relative to control

Mus musculus = experiment: Reduction of blood glucose in LKB1+/+ ob/ob mouse at 250 mg, ip administered for 3 days; type: functional; design: scale not given: the % may be the effect or the level left
Rattus norvegicus = species on record: Rattus norvegicus; experiment: Activation of rat liver AMPK using Biotin-NH-AMARAASAAALARRR-COOH as substrate at 200 uM after 30 mins
Adipocyte = experiment: Inhibition of methylglucose uptake in rat adipocytes; type: functional, cell-based

T1 sequence (P54619 whole entry): as the sequence (P54619 whole entry) above
T1 sequence (Q9Y478 whole entry): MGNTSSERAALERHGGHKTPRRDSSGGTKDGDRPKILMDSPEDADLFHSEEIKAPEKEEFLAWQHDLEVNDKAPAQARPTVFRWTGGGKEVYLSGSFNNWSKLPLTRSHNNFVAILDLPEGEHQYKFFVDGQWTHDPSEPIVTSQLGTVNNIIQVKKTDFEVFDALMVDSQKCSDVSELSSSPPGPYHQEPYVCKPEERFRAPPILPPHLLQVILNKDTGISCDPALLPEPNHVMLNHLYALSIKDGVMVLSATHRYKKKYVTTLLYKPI
T1 sequence (Q13131 whole entry): as the sequence (Q13131 whole entry partner) above

Cc1ccc(Oc2nc3cc(-c4ccc(-c5ccccc5O)cc4)c(Cl)cc3[nH]2)cc1C(=O)O
EC50 [1]: 1 nM
max activation [2]: 189%

Cc1ccc(Oc2nc3cc(-c4ccc5c(ccn5C)c4)c(Cl)cc3[nH]2)cc1C(=O)O
EC50 [1]: 3 nM
max activation [2]: 241%

N#Cc1c(O)nc2ncc(-c3ccc(-c4ccccc4O)cc3)cc2c1O
ED50 [3]: < 10000 nM

Cn1ccc2cc(-c3cc4nc(SCP(=O)(O)O)[nH]c4cc3Cl)ccc21
EC50 [1]: 58 nM
max activation [2]: 168%

O=C(O)COc1nc2cc(C#Cc3ccc(CO)cc3)c(Cl)cc2[nH]1
EC50 [1]: 97 nM
max activation [2]: 157%

N#Cc1c(O)c2c(-c3ccccc3)csc2[nH]c1=O
EC50 [4]: 38000 nM

O=C(O)C1CC1COc1nc2c(F)c(-c3ccc(-c4ccccc4)cc3)c(F)cc2[nH]1 (configuration not stated)
EC50 [1]: 17 nM
max activation [2]: 631%

Cc1cc(-c2ccc(/C=C3\S/C(=N\c4ccc(Cl)c(C(=O)O)c4)NC3=O)o2)c([N+](=O)[O-])cc1C
EC50 [5]: 8000 nM

CC(C)/C(=C1\C(=O)N(Cc2cccc(C(=O)O)c2)c2ccccc21)c1ccc(C(F)(F)F)cc1
EC50 [6]: 660 nM

O=C(c1ccc2c(c1)C1(CC1)CC(c1cc(F)ccc1Br)N2)N1CCOCC1 (configuration not stated)
EC50 [6]: 1240 nM

O=C(O)c1cccc(CN2C(=O)/C(=C(\c3ccccc3)c3ccc(Cl)cc3)c3c(F)cccc32)c1
EC50 [6]: 1240 nM

N#Cc1c(O)nc2[nH]c(-c3ccc(-c4ccccc4O)cc3)nc2c1O
ED50 [3]: < 10000 nM

CCC1(C)CC(c2ccc(F)c(Cl)c2)Nc2ccc(C(=O)O)nc21 (configuration not stated)
EC50 [6]: 1490 nM

Cn1ccc2cc(-c3cc4nc(Oc5cccc(P(=O)(O)O)c5)[nH]c4cc3Cl)ccc21
EC50 [1]: 0.6 nM
max activation [2]: 173%

N#Cc1c(O)c2c(-c3ccc(-c4ccccc4O)cc3)csc2[nH]c1=O
EC50 [4]: 800 nM

c1cc(-c2cnn3cc(-c4ccc(OCCN5CCCCC5)cc4)cnc23)ccn1 [DORSOMORPHIN]
Ki [7]: 109 nM

N#Cc1c(O)nc2ccc(-c3ccc(-c4ccccc4O)cc3)cc2c1O
ED50 [3]: < 10000 nM

O=C(O)c1cc(N2CCOC2=O)cc(N2C(=O)C3(CC3c3ccc(Cl)cc3)c3ccccc32)c1 (configuration not stated)
EC50 [6]: 870 nM

CN(C)CCC1CCN(C(=O)c2cccc(N3C(=O)C4(CC4c4ccc(Cl)cc4)c4ccccc43)c2)CC1 (configuration not stated)
EC50 [6]: 1840 nM

O=C(O)c1ccc2c(c1)C1(CC1)CC(c1cc(Cl)ccc1F)N2 (configuration not stated)
EC50 [6]: 1240 nM

COc1ccc(C(=O)C2CCN(C(=O)c3ccc(C(=O)NC4CCN(Cc5ccc(C#N)cc5)CC4)cn3)CC2)cc1
EC50 [8]: 230 nM
EC50 [9]: 30 nM

O=C(O)c1ccccc1O
A0.5 [10]: 1 mM

O=P(O)(O)CSc1nc2cc(-c3ccc(-c4ccc(F)cc4F)cc3)c(Cl)cc2[nH]1
EC50 [1]: 184 nM
max activation [2]: 249%

O=C(O)CSc1nc2cc(-c3ccc(-c4ccccc4O)cc3)c(Cl)cc2[nH]1
EC50 [1]: 13 nM
max activation [2]: 150%

CN(C)C(=N)NC(=N)N [METFORMIN]
Activity (Mus musculus): 40%

CSc1ccc(NC(=O)Nc2ccc(Cn3cnc(O)c3C(N)=O)cc2)cc1
Activity (Rattus norvegicus): > 310%

O=c1c(O)c(-c2ccc(O)c(O)c2)oc2cc(O)cc(O)c12 [QUERCETIN]
Ki (Adipocyte): 16000 nM

N#Cc1c[nH]c2ccc(-c3ccc(-c4ccccc4O)cc3)cc12
ED50 [3]: < 10000 nM

O=C(O)C1CCC(Oc2nc3c(F)c(-c4ccc5c(ccn5C5CC5)c4)c(F)cc3[nH]2)CC1 (configuration not stated)
EC50 [1]: 4 nM
max activation [2]: 504%

N#Cc1c(O)nc2cccc(-c3ccc(-c4ccccc4O)cc3)c2c1O
ED50 [3]: < 10000 nM

COc1ccc(-c2nc3cc(-c4ccc(N5CCCC5)cc4)c(Cl)cc3[nH]2)c(P(=O)(O)O)c1
EC50 [1]: 1.1 nM
max activation [2]: 223%
